Series [1] can be described thus: circular dichroism (CD) spectroscopy. The series is classed as physicochemical. To be noted: 150 mM NaCl, 5 mM MgCl2, pH 7.5, 5 °C, n=2, free‐thiol (red) samples with 5 mol equivalents TCEP; for MRE222 (mean residue ellipticity at 222 nm): 25 mM Tris, mean ± SD, SD; for % Helicity (estimated): from MRE222 by equation 7, 25 mM Tris. As to the method:
Circular dichroism (CD): All samples were prepared in Tris buffer (25 mM Tris, 150 mM NaCl, 5 mM MgCl2, pH 7.5) with the exception of free sulfhydryl peptides, to which Tris(2‐carboxyethyl)phosphine (TCEP; 5 mol eq. relative to the peptide) was added. CD spectra were recorded using an APP Chirascan CD spectropolarimeter and 1 mm pathlength quartz cuvettes. Sample concentrations were typically 30–120 μM, as determined by UV−V absorption based on a tryptophan extinction coefficient of 5600 M^−1 cm^−1 and, for mal‐constrained variants, a maleimide coefficient of 1700 M^−1 cm^−1.[16, 32] […] Spectra were recorded in duplicate at 5 °C, over wavelengths ranging from 290 to 180 nm, with data collected every 1 nm (1 nm s^−1). A background spectrum for CD buffer alone was also recorded and background ellipticity values were subtracted from raw sample ellipticity values (θ) when calculating mean residue ellipticities (MREs) using Equation 6: (6) MRE=(θλ-θ0)xMw/nxlxc
Where [θ]λ is the observed ellipticity at a given wavelength λ in mdeg, [θ]0 is the ellipticity observed for the buffer, Mw =molar weight of the peptide in g mol^−1, n=number of residues; c=sample concentration (mg mL^−1); l=pathlength of the cuvette in mm. Estimates of peptide % helicity were made using Equation 7, [33] (7) %helicity=(MRE222-MREcoil)x100/-425001-3/n
where MRE222 is the MRE value at 222 nm, MREcoil=640‐45T (with T in °C)=415 deg cm^2 dmol^−1 res^−1 at 5 °C, and n is the number of backbone amide bonds including the N‐terminal acetyl.

Series [2] has as its target T1, N‐Myc/Aurora‐A interaction (Aurora‐A122‐403‐C290A/C393A) (Homo sapiens, UniProt O14965, C290A/C393A).
T1 construct: Aurora‐A 122‐403‐C290A/C393A protein was produced as described previously; made in house
T1 sequence (O14965 122-403 C290A/C393A): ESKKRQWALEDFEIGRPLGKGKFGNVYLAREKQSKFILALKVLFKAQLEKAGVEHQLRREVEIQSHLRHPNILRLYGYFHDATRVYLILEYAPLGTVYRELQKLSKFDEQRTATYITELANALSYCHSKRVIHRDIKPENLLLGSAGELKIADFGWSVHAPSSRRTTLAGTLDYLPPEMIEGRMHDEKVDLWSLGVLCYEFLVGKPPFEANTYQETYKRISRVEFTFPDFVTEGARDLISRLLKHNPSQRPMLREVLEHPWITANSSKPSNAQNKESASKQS
Briefly: competition fluorescence anisotropy (FA) assay against fluorescein labelled N‐Myc61‐89. Note: equilibrated 2 h at room temperature. The series is classed as binding. To be noted: SD. Here is the method: Fluorescence anisotropy (FA) assays: All assays were performed using 384‐well plates (Greiner Bio‐one, UK). […] All samples were prepared in 25 mM Tris, 150 mM NaCl, 5 mM MgCl2, pH 7.5, and tested in triplicate using an EnVisionTM 2103 MultiLabel plate reader (Perkin Elmer; Waltham, MA, USA). The parameters were set as follows: Excitation wavelength=480 nm (30 nm bandwidth) and emission wavelength=535 nm (30 nm bandwidth). Measured data were processed and analysed as previously described.[31] Specifically, the perpendicular intensity (P) and parallel intensity (S) were subtracted by the control values and used for calculations of intensity and anisotropy using the following Equations 1, 2, 3, 4, and 5: (1) I=2PG+S (2) r=S-PG (3) Lb=r-rmin/λrmax-r+r-rmin (4) [drawing 1] (5) y=rmax+rmin-rmax/1+(x/x0)^p
For competition FA assays, the average anisotropy and the average standard deviation of the values derived from equation (2) were calculated and fit to a sigmoidal logistic model (equation (5)) using Origin 2021. […] Results are reported as IC50±SD, with data points representing the mean of three replicates and error bars indicating the corresponding SD. Where applicable, ΔΔG was determined as follows: ΔΔG=−RT ln (ΔIC50).
On the technique in general: In fluorescence polarisation assays a small probe gives low polarisation when free and higher when bound to something large.

Where a SMILES comes first, the peptide text is derived from it. Bridges are numbered along the chain shown (N, C = ends).

Broadly, the IC50 is the concentration that inhibits the measured activity by half. A lower IC50 goes with greater potency in that assay.

Take `CSCC[C@H](NC(=O)[C@H](CS)NC(=O)[C@@H](NC(=O)[C@@H](NC(=O)[C@H](Cc1c[nH]c2ccccc12)NC(=O)[C@H](CO)NC(=O)[C@@H]1CCCN1C(=O)[C@@H]1CCCN1C(=O)[C@H](CCC(=O)O)NC(=O)[C@H](CO)NC(=O)[C@H](CO)NC(=O)[C@H](Cc1c[nH]cn1)NC(=O)[C@H](CCC(=O)O)NC(=O)[C@H](C)NC(=O)[C@H](Cc1ccccc1)NC(=O)CNC(=O)[C@H](CCCNC(=N)N)NC(=O)[C@H](CO)NC(=O)[C@@H]1CCCN1C(=O)[C@H](CO)NC(=O)[C@H](CC(C)C)NC(C)=O)C(C)C)[C@@H](C)O)C(=O)N[C@@H](CC(C)C)C(=O)N[C@@H](CC(C)C)C(=O)N[C@@H](CS)C(=O)N[C@@H](CC(N)=O)C(=O)N[C@@H](CCC(=O)O)C(=O)N[C@@H](CC(C)C)C(=O)N[C@@H](Cc1c[nH]c2ccccc12)C(=O)NCC(N)=O` [N-Myc 61-89E80C/E84C red] (Ac-LSPSRGFAEHSSEPPSWVTCMLLCNELWG-NH2): in series [1], the “MRE222 (mean residue ellipticity at 222 nm)” value (from here on “MRE222”) is reported as -2562 ± 106 deg cm^−1 dmol^−1 res^−1 and the “% Helicity (estimated)” value is given as 8 ± 1%. The molecule also came in with a 50% inhibitory concentration (IC50) in series [2] of 111 ± 5 µM.
Taken in the same sequence, the figures for `CSCC[C@H](NC(=O)[C@H](CCC(=O)O)NC(=O)[C@H](CS)NC(=O)[C@@H](NC(=O)[C@H](Cc1c[nH]c2ccccc12)NC(=O)[C@H](CO)NC(=O)[C@@H]1CCCN1C(=O)[C@@H]1CCCN1C(=O)[C@H](CCC(=O)O)NC(=O)[C@H](CO)NC(=O)[C@H](CO)NC(=O)[C@H](Cc1c[nH]cn1)NC(=O)[C@H](CCC(=O)O)NC(=O)[C@H](C)NC(=O)[C@H](Cc1ccccc1)NC(=O)CNC(=O)[C@H](CCCNC(=N)N)NC(=O)[C@H](CO)NC(=O)[C@@H]1CCCN1C(=O)[C@H](CO)NC(=O)[C@H](CC(C)C)NC(C)=O)C(C)C)C(=O)N[C@@H](CC(C)C)C(=O)N[C@@H](CS)C(=O)N[C@@H](CCC(=O)O)C(=O)N[C@@H](CC(N)=O)C(=O)N[C@@H](CCC(=O)O)C(=O)N[C@@H](CC(C)C)C(=O)N[C@@H](Cc1c[nH]c2ccccc12)C(=O)NCC(N)=O` [N-Myc 61-89 T79C/L83C red] (Ac-LSPSRGFAEHSSEPPSWVCEMLCENELWG-NH2) were -1907 ± 23 deg cm^−1 dmol^−1 res^−1, 6 ± 1% and 152 ± 15 µM.
With `CSCC[C@@H]1NC(=O)[C@@H](NC(=O)[C@@H](NC(=O)[C@@H](NC(=O)[C@H](Cc2c[nH]c3ccccc23)NC(=O)[C@H](CO)NC(=O)[C@@H]2CCCN2C(=O)[C@@H]2CCCN2C(=O)[C@H](CCC(=O)O)NC(=O)[C@H](CO)NC(=O)[C@H](CO)NC(=O)[C@H](Cc2c[nH]cn2)NC(=O)[C@H](CCC(=O)O)NC(=O)[C@H](C)NC(=O)[C@H](Cc2ccccc2)NC(=O)CNC(=O)[C@H](CCCNC(=N)N)NC(=O)[C@H](CO)NC(=O)[C@@H]2CCCN2C(=O)[C@H](CO)NC(=O)[C@H](CC(C)C)NC(C)=O)C(C)C)[C@@H](C)O)CSSC[C@@H](C(=O)N[C@@H](CC(N)=O)C(=O)N[C@@H](CCC(=O)O)C(=O)N[C@@H](CC(C)C)C(=O)N[C@@H](Cc2c[nH]c3ccccc23)C(=O)NCC(N)=O)NC(=O)[C@H](CC(C)C)NC(=O)[C@H](CC(C)C)NC1=O` [N-Myc 61-89 E80C/E84C ox] (Ac-LSPSRGFAEHSSEPPSWVTCMLLCNELWG-NH2; disulfide 20-24), in series [1], the “MRE222” value is listed as -2656 ± 28 deg cm^−1 dmol^−1 res^−1 and the “% Helicity (estimated)” value is listed as 8 ± 1%. For the same molecule, in series [2], the IC50 was found to be 107 ± 19 µM.
For `CSCC[C@@H]1NC(=O)[C@H](CCC(=O)O)NC(=O)[C@@H](NC(=O)[C@@H](NC(=O)[C@H](Cc2c[nH]c3ccccc23)NC(=O)[C@H](CO)NC(=O)[C@@H]2CCCN2C(=O)[C@@H]2CCCN2C(=O)[C@H](CCC(=O)O)NC(=O)[C@H](CO)NC(=O)[C@H](CO)NC(=O)[C@H](Cc2c[nH]cn2)NC(=O)[C@H](CCC(=O)O)NC(=O)[C@H](C)NC(=O)[C@H](Cc2ccccc2)NC(=O)CNC(=O)[C@H](CCCNC(=N)N)NC(=O)[C@H](CO)NC(=O)[C@@H]2CCCN2C(=O)[C@H](CO)NC(=O)[C@H](CC(C)C)NC(C)=O)C(C)C)CSSC[C@@H](C(=O)N[C@@H](CCC(=O)O)C(=O)N[C@@H](CC(N)=O)C(=O)N[C@@H](CCC(=O)O)C(=O)N[C@@H](CC(C)C)C(=O)N[C@@H](Cc2c[nH]c3ccccc23)C(=O)NCC(N)=O)NC(=O)[C@H](CC(C)C)NC1=O` [N-Myc 61-89T79C/L83C ox] (Ac-LSPSRGFAEHSSEPPSWVCEMLCENELWG-NH2; disulfide 19-23), in series [1], the “MRE222” value is given as -1951 ± 84 deg cm^−1 dmol^−1 res^−1 and the “% Helicity (estimated)” value was 6 ± 1%. This molecule also displayed an IC50 in series [2] of 75 ± 8 µM.
For the molecule `CC(=O)N[C@@H](CC(C)C)C(=O)N[C@@H](CO)C(=O)N1CCC[C@H]1C(=O)N[C@@H](CO)C(=O)N[C@@H](CCCNC(=N)N)C(=O)NCC(=O)N[C@@H](Cc1ccccc1)C(=O)N[C@@H](C)C(=O)N[C@@H](CCC(=O)O)C(=O)N[C@@H](Cc1c[nH]cn1)C(=O)N[C@@H](CO)C(=O)N[C@@H](CO)C(=O)N[C@@H](CCC(=O)O)C(=O)N1CCC[C@H]1C(=O)N1CCC[C@H]1C(=O)N[C@@H](CO)C(=O)N[C@@H](Cc1c[nH]c2ccccc12)C(=O)N[C@H](C(=O)N[C@H](C(=O)N[C@@H](CCC(=O)O)C(=O)N[C@@H](CS)C(=O)N[C@@H](CC(C)C)C(=O)N[C@@H](CC(C)C)C(=O)N[C@@H](CCC(=O)O)C(=O)N[C@@H](CS)C(=O)N[C@@H](CCC(=O)O)C(=O)N[C@@H](CC(C)C)C(=O)N[C@@H](Cc1c[nH]c2ccccc12)C(=O)NCC(N)=O)[C@@H](C)O)C(C)C` [N-Myc 61-89M81C/N85C red] (Ac-LSPSRGFAEHSSEPPSWVTECLLECELWG-NH2), in series [1], the “MRE222” value is recorded as -2198 ± 93 deg cm^−1 dmol^−1 res^−1 and the “% Helicity (estimated)” value is recorded as 7 ± 1%. In series [2], this molecule yielded an IC50 of 164 ± 6 µM.
Taken in the same sequence, the figures for `CSCC[C@H](NC(=O)[C@H](CCC(=O)O)NC(=O)[C@@H](NC(=O)[C@@H](NC(=O)[C@H](Cc1c[nH]c2ccccc12)NC(=O)[C@H](CO)NC(=O)[C@@H]1CCCN1C(=O)[C@@H]1CCCN1C(=O)[C@H](CCC(=O)O)NC(=O)[C@H](CO)NC(=O)[C@H](CO)NC(=O)[C@H](Cc1c[nH]cn1)NC(=O)[C@H](CCC(=O)O)NC(=O)[C@H](C)NC(=O)[C@H](Cc1ccccc1)NC(=O)CNC(=O)[C@H](CCCNC(=N)N)NC(=O)[C@H](CO)NC(=O)[C@@H]1CCCN1C(=O)[C@H](CO)NC(=O)[C@H](CC(C)C)NC(C)=O)C(C)C)[C@@H](C)O)C(=O)N[C@@H](CC(C)C)C(=O)N[C@H]1CSSC[C@@H](C(=O)N[C@@H](Cc2c[nH]c3ccccc23)C(=O)NCC(N)=O)NC(=O)[C@H](CCC(=O)O)NC(=O)[C@H](CC(N)=O)NC(=O)[C@H](CCC(=O)O)NC1=O` [N-Myc 61-89L83C/L87C ox] (Ac-LSPSRGFAEHSSEPPSWVTEMLCENECWG-NH2; disulfide 23-27) were -2223 ± 37 deg cm^−1 dmol^−1 res^−1, 7 ± 1% and 103 ± 11 µM.
